Experimental data as given in patent US20140243292A1, “SUBSITUTED 2-(CHROMAN-6-YLOXYL)-THIAZOLES AND THEIR USE AS PHARMACEUTICALS” (Sanofi, priority 2011, published 2014).
Where a name gives a salt, the structure may show the parent alone.

These compounds were tested against T1, human NCX1 (Homo sapiens, UniProt P32418) (assay: NCX1 inhibition, reverse mode (Ca2+ influx into cells), FLIPR Fluo-4 assay). Settings: NCX1 reverse mode; at 30 μM; read-out: Inhibition in % at 30 μM (NCX1rv; IC50 value not determined).
T1 construct: expressed in transfected cells
Type: cell-based
In short: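 CHO cells stably expressing human NCX1 were loaded with 2 µM Fluo-4 AM for 80 min at room temperature, then preincubated with compound for 45 min at 16 °C in pH 7.4 HEPES buffer (3.5 mM CaCl2, 2.5 mM probenecid). Reverse-mode Ca2+ influx was triggered by 20 µM final gramicidin and read at 520 nm on FLIPR. IC50 came from % inhibition of max−min fluorescence.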

inhibition at 30 µM [%]	Structure (SMILES)
30	CCOC(=O)C[C@H](O)[C@H](CC1CCCCC1)NC(=O)c1cnc(Oc2ccc3c(c2)CC[C@@H](c2ccccc2)O3)s1 [compound 227]
46	CC(C)C[C@@H](NC(=O)c1cnc(Oc2ccc3c(c2)CC[C@@H](c2ccccc2)O3)s1)C(=O)OC(C)(C)C [compound 228]
44	CC(C)C[C@H](NC(=O)c1cnc(Oc2ccc3c(c2)CC[C@@H](c2ccccc2)O3)s1)C(=O)OC(C)(C)C [compound 229]

Same assay, conditions: inhibition of NCX1 in reverse mode (Ca2+ influx into cells); read-out: NCX1rv IC50

Structure (SMILES)	IC50 [nM]
Cc1nc(Oc2ccc3c(c2)CC[C@@H](c2ccccc2)O3)sc1C(=O)NCCc1ccncc1 [compound 169, hydrochloride]	300
Cc1nc(Oc2ccc3c(c2)CCC(c2ccccc2)O3)sc1C(=O)NCCc1ccncc1 (centres unmarked) [compound 170, hydrochloride]	300
Cc1noc(C)c1CCNC(=O)c1cnc(Oc2ccc3c(c2)CCC(c2cccc(O)c2)O3)s1 (centres unmarked) [compound 173]	2300
O=C(NCc1ccncc1)c1cnc(Oc2ccc3c(c2)CCC(c2cccc(O)c2)O3)s1 (centres unmarked) [compound 174, hydrochloride]	800
Cc1ccccc1C1CCc2cc(Oc3ncc(C(=O)NCCc4c(C)noc4C)s3)ccc2O1 (centres unmarked) [compound 176]	400
Cc1ccccc1C1CCc2cc(Oc3ncc(C(=O)NCc4ccncc4)s3)ccc2O1 (centres unmarked) [compound 179]	500
CCOC(=O)[C@H](C)NC(=O)c1cnc(Oc2ccc3c(c2)CC[C@@H](c2ccccc2)O3)s1 [compound 180]	200
COC(=O)CNC(=O)c1cnc(Oc2ccc3c(c2)CC[C@@H](c2ccccc2)O3)s1 [compound 181]	200
CCC(C)[C@H](NC(=O)c1cnc(Oc2ccc3c(c2)CC[C@@H](c2ccccc2)O3)s1)C(=O)OC (some centres unmarked) [compound 183]	1200
COC(=O)[C@@H](C)NC(=O)c1cnc(Oc2ccc3c(c2)CC[C@@H](c2ccccc2)O3)s1 [compound 184]	400
COC(=O)[C@@H]1CCCN1C(=O)c1cnc(Oc2ccc3c(c2)CC[C@@H](c2ccccc2)O3)s1 [compound 185]	500
CCOC(=O)[C@@H](NC(=O)c1cnc(Oc2ccc3c(c2)CC[C@@H](c2ccccc2)O3)s1)C(C)C [compound 186]	700
COC(=O)C1(NC(=O)c2cnc(Oc3ccc4c(c3)CC[C@@H](c3ccccc3)O4)s2)CCCC1 [compound 187]	600
CCOC(=O)C1(NC(=O)c2cnc(Oc3ccc4c(c3)CC[C@@H](c3ccccc3)O4)s2)CC1 [compound 188]	600
CN(CC(=O)O)C(=O)c1cnc(Oc2ccc3c(c2)CC[C@@H](c2ccccc2)O3)s1 [compound 190]	900
C[C@H](NC(=O)c1cnc(Oc2ccc3c(c2)CC[C@@H](c2ccccc2)O3)s1)C(=O)O [compound 191]	600
CC(C)(NC(=O)c1cnc(Oc2ccc3c(c2)CC[C@@H](c2ccccc2)O3)s1)C(=O)O [compound 193]	600
C[C@@H](NC(=O)c1cnc(Oc2ccc3c(c2)CC[C@@H](c2ccccc2)O3)s1)C(=O)O [compound 194]	700
O=C(NC1(C(=O)O)CCCC1)c1cnc(Oc2ccc3c(c2)CC[C@@H](c2ccccc2)O3)s1 [compound 195]	700
CCC(C)[C@H](NC(=O)c1cnc(Oc2ccc3c(c2)CC[C@@H](c2ccccc2)O3)s1)C(=O)O (some centres unmarked) [compound 196]	500
CC(C)[C@H](NC(=O)c1cnc(Oc2ccc3c(c2)CC[C@@H](c2ccccc2)O3)s1)C(=O)O [compound 197]	600
O=C(O)CN1CCN(C(=O)c2cnc(Oc3ccc4c(c3)CC[C@@H](c3ccccc3)O4)s2)CC1 [compound 198]	1300

Structure (SMILES)	IC50 [nM]
O=C(NC1(C(=O)O)CC1)c1cnc(Oc2ccc3c(c2)CC[C@@H](c2ccccc2)O3)s1 [compound 199]	1000
O=C(N[C@H]1CCCC[C@H]1C(=O)O)c1cnc(Oc2ccc3c(c2)CC[C@@H](c2ccccc2)O3)s1 [compound 200]	400
O=C(N[C@H](CO)c1ccccc1)c1cnc(Oc2ccc3c(c2)CC[C@@H](c2ccccc2)O3)s1 [compound 201]	300
C[C@H](O)[C@H](CO)NC(=O)c1cnc(Oc2ccc3c(c2)CC[C@@H](c2ccccc2)O3)s1 [compound 202]	200
CC(C)[C@@H](CO)NC(=O)c1cnc(Oc2ccc3c(c2)CC[C@@H](c2ccccc2)O3)s1 [compound 203]	400
O=C(c1cnc(Oc2ccc3c(c2)CC[C@@H](c2ccccc2)O3)s1)N1CCC[C@H]1CO [compound 205]	300
O=C(NC[C@H]1CCCC[C@H]1O)c1cnc(Oc2ccc3c(c2)CC[C@@H](c2ccccc2)O3)s1 [compound 207]	500
CC[C@H](C)[C@@H](CO)NC(=O)c1cnc(Oc2ccc3c(c2)CC[C@@H](c2ccccc2)O3)s1 [compound 208]	400
CC[C@@H](C)[C@H](CO)NC(=O)c1cnc(Oc2ccc3c(c2)CC[C@@H](c2ccccc2)O3)s1 [compound 209]	300
O=C(NCc1ccnc(Cl)c1)c1cnc(Oc2ccc3c(c2)CCC(c2ccsc2)O3)s1 (centres unmarked) [compound 211, hydrochloride]	400
CN1CCN(C(=O)c2cnc(Oc3ccc4c(c3)CC[C@@H](c3ccccc3)O4)s2)CC1 [compound 213, hydrochloride]	800
Cc1ccccc1C1CCc2cc(Oc3ncc(C(=O)NCc4ccnc(Cl)c4)s3)ccc2O1 (centres unmarked) [compound 215]	1000
O=C(NCc1ccno1)c1cnc(Oc2ccc3c(c2)CCC(c2cc(F)ccc2F)O3)s1 (centres unmarked) [compound 217]	200
COC(=O)C(C)(Cc1ccccc1)NC(=O)c1cnc(Oc2ccc3c(c2)CC[C@@H](c2ccccc2)O3)s1 (some centres unmarked) [compound 218]	2500
CCOC(=O)[C@H](Cc1ccccc1)NC(=O)c1cnc(Oc2ccc3c(c2)CC[C@@H](c2ccccc2)O3)s1 [compound 219]	4800
COC(=O)[C@@H](NC(=O)c1cnc(Oc2ccc3c(c2)CC[C@@H](c2ccccc2)O3)s1)C(C)(C)C [compound 220]	600
COC(=O)C1CN(C(=O)c2cnc(Oc3ccc4c(c3)CC[C@@H](c3ccccc3)O4)s2)CC1C(F)(F)F (some centres unmarked) [compound 221]	300
COC(=O)[C@@H]1[C@@H]2C[C@@H]2CN1C(=O)c1cnc(Oc2ccc3c(c2)CC[C@@H](c2ccccc2)O3)s1 [compound 222]	900
COC(=O)[C@@H]1CC(C)(C)CN1C(=O)c1cnc(Oc2ccc3c(c2)CC[C@@H](c2ccccc2)O3)s1 [compound 223]	1300
COC(=O)C1CN(C(=O)c2cnc(Oc3ccc4c(c3)CC[C@@H](c3ccccc3)O4)s2)CC1C (some centres unmarked) [compound 224]	300
COC(=O)C1(C)CCN(C(=O)c2cnc(Oc3ccc4c(c3)CC[C@@H](c3ccccc3)O4)s2)C1 (some centres unmarked) [compound 225]	500
COC(=O)[C@H](O)[C@H](CC(C)C)NC(=O)c1cnc(Oc2ccc3c(c2)CC[C@@H](c2ccccc2)O3)s1 [compound 226]	700

Now from value to compound:

IC50 [nM]	Structure (SMILES)
400	Nc1cc(CNCc2cnc(Oc3ccc4c(c3)CCC(c3ccccc3)O4)s2)ccn1 (centres unmarked) [compound 155]
400	c1ccc(C2CCc3cc(Oc4ncc(CNCc5nnc6ccccn56)s4)ccc3O2)cc1 (centres unmarked) [compound 156]
200	N#Cc1ccc(CNCc2cnc(Oc3ccc4c(c3)CCC(c3ccccc3)O4)s2)cn1 (centres unmarked) [compound 157]
100	c1ccc(C2CCc3cc(Oc4ncc(CNCc5ccno5)s4)ccc3O2)cc1 (centres unmarked) [compound 159]
200	Cc1cc(CNCc2cnc(Oc3ccc4c(c3)CCC(c3ccccc3)O4)s2)on1 (centres unmarked) [compound 160]
300	c1ccc(C2CCc3cc(Oc4ncc(CNCc5ccncn5)s4)ccc3O2)cc1 (centres unmarked) [compound 161]
400	c1ccc(C2CCc3cc(Oc4ncc(CNCc5ccnc(N6CCOCC6)c5)s4)ccc3O2)cc1 (centres unmarked) [compound 162]
400	Cc1nc(S(=O)(=O)NCc2cnc(Oc3ccc4c(c3)CCC(c3ccccc3)O4)s2)cn1C (centres unmarked) [compound 163]
700	CN1CC(=O)N(CC(=O)NCc2cnc(Oc3ccc4c(c3)CCC(c3ccccc3)O4)s2)C1=O (centres unmarked) [compound 164]
500	O=C(CN1CCCC1=O)NCc1cnc(Oc2ccc3c(c2)CCC(c2ccccc2)O3)s1 (centres unmarked) [compound 165]
300	Cc1nc(Oc2ccc3c(c2)CCC(c2ccccc2)O3)sc1C(=O)NCc1ccno1 (centres unmarked) [compound 166]
500	Cc1nc(Oc2ccc3c(c2)CCC(c2ccccc2)O3)sc1C(=O)NCc1ccnc(Cl)c1 (centres unmarked) [compound 167, hydrochloride]
200	Cc1nc(Oc2ccc3c(c2)CC[C@@H](c2ccccc2)O3)sc1C(=O)NCc1ccno1 [compound 168]
100	O=C(NCc1ccno1)c1cnc(Oc2ccc3c(c2)CC[C@@H](c2ccccc2)O3)s1 [compound 171]
400	O=C(NCc1ccno1)c1cnc(Oc2ccc3c(c2)CC[C@H](c2ccccc2)O3)s1 [compound 172]
400	O=C(CN1CC[C@@H](O)C1)NCc1cnc(Oc2ccc3c(c2)CCC(c2ccccc2)O3)s1 (some centres unmarked) [compound 175]
400	Cc1nc(Oc2ccc3c(c2)CC[C@@H](c2ccccc2)O3)sc1C(=O)NCc1ccnc(Cl)c1 [compound 178, 4-Methyl-2-((S)-2-phenyl-chroman-6-yloxy)-thiazole-5-carboxylic acid (2-chloro-pyridin-4-ylmethyl)-amide hydrochloride]
500	O=C(O)CNC(=O)c1cnc(Oc2ccc3c(c2)CC[C@@H](c2ccccc2)O3)s1 [compound 192]
100	O=C(NCCO)c1cnc(Oc2ccc3c(c2)CC[C@@H](c2ccccc2)O3)s1 [compound 204]
100	c1ccc([C@@H]2CCc3cc(Oc4ncc(CNCc5ccno5)s4)ccc3O2)cc1 [compound 210]
300	O=C(NCc1ccno1)c1cnc(Oc2ccc3c(c2)CCC(c2ccsc2)O3)s1 (centres unmarked) [compound 212]
